Results from patent US20210379062A1, “The use of a H3R inverse agonist for the treatment of excessive daytime sleepiness associated with parkinson's disease (PD)” (Novartis AG, priority 2018, published 2021).

Tests used:
[1] = First-in-human SAD/MAD study: safety, tolerability, night sleep duration, formulation effect; type: in vivo
Method: An open-label, adaptive design study was performed in healthy volunteers to characterize regional brain H3 receptor occupancy following single dose of Compound (I) by using positron emission tomography (PET) with the radioligand [^11C]MK-8278 (Van Laere, K. J. et al, Journal of Nuclear Medicine, 2014, 55: 65-72). The primary objective of this study was to evaluate the plasma concentration of Compound (I) leading to 50% occupancy of H3 receptors in the brain (EC50). A total of 6 subjects were enrolled into the study and were scanned in three cohorts of two subjects each. Prior to dosing with Compound (I), each subject underwent a baseline PET scan to assess binding of [^11C]MK-8278 to H3R in the absence of Compound (I). Subjects subsequently received single oral doses of Compound (I) and then underwent two post-dose PET scans. Subjects of cohort 1 received a single oral dose of 300 mg of Compound (I), corresponding to the single dose maximum tolerated dose (MTD) determined from the Phase I study after single oral dose of Compound (I). These subjects underwent two post-dose PET scans, at 3 hours and 27 hours after dosing. The doses and scan timings for the subsequent cohorts were selected based on interim data analyses following the completion of the preceding cohort(s). Subjects of cohorts 2 and 3 received a single oral dose of 10 mg and 0.3 mg, respectively. Compound (I) was administered as capsules in cohorts 1 and 2, whereas cohort 3 received Compound (I) as an oral solution. […] The first post-dose PET scan for cohorts 2 and 3 was acquired at 3 hours and the second one at 27 hours and 8 hours after dosing, respectively.
PK data (drug concentration over time) from Part 1 and Part 2 of the Phase I study were used in the development of the model: • 1) Part 1 is the Single Ascending Dose part; 8 different cohorts were used, with each cohort composed of 6 active subjects and 2 placebo subjects. The dose amounts used in the 8 cohorts were 0.3, 1, 3, 10, 30, 100, 300 and 800 mg. Dosing was performed at time equal to 0 hours. […]

[2] = PK model (two-compartment, NONMEM) fitted to Phase I SAD/MAD concentrations; type: in vivo, human
Method: PK data (drug concentration over time) from Part 1 and Part 2 of the Phase I study were used in the development of the model: • 1) Part 1 is the Single Ascending Dose part; 8 different cohorts were used, with each cohort composed of 6 active subjects and 2 placebo subjects. The dose amounts used in the 8 cohorts were 0.3, 1, 3, 10, 30, 100, 300 and 800 mg. Dosing was performed at time equal to 0 hours. Additional data from the Part 3 of the Phase I study (Mechanistic biomarker study, 100 mg single dose) were lumped with this group. • 2) Part 2 is the Multiple Ascending Dose part; 4 different cohorts were used, with each cohort composed of 9 active subjects and 3 placebo subjects. The dose amounts used in the 4 cohorts were 10, 30, 50 and 100 mg. Dosing was performed once a day (in the morning) at times equal to 0, 2, 3, 4, 5, 6, 7, 8, 9, 10, 11, 12, 13, 14, 15 days.
The analysis was performed using NONMEM VII version 3 (Icon Development Solutions, Ellicott City, Md., USA), utilizing the MODESIM high performance computing environment. Pirana software was used for model editing and model submission to the cluster for running. All model building was performed using the first order conditional estimation with interaction (FOCEi) method.
A two-compartment model with combined zeroth-order and first-order absorption was used to fit the Compound (I) concentrations. The disposition kinetics were modeled using a parameterization involving apparent oral clearance (CL/F), apparent central volume (Vc/F), apparent inter-compartment clearance (Q/F), and apparent peripheral volume (Vp/F). The duration of zero-order absorption (D), a first order absorption rate constant (Ka) and an absorption delay parameter (Lag) were used to characterize the absorption process.
Between-subject variability in pharmacokinetic parameters Vc/F, CL/F, Vp/F and Ka was modeled using multiplicative exponential random effects of the form:
Residual variability was modeled using a proportional error model: […]

With `Cn1nc(N2CCC(OC(=O)N3CCN(C4CCC4)CC3)CC2)ccc1=O` [Compound (I), 1-(1-methyl-6-oxo-1,6-dihydropyridazin-3-yl)piperidin-4-yl 4-cyclobutylpiperazine-1-carboxylate] the “highest tolerated repeated dose” value ([1]; healthy volunteer study, repeated dose) was 50 mg, the “difference in PK, capsule vs oral solution” value ([1]; in vivo, po) was “no clinically relevant difference” and the “single dose maximum tolerated dose (MTD)” value ([1]; single oral dose, Phase I study) was 300 mg. For the same compound, the “CL/F (apparent oral clearance)” value ([2]; PK model estimate) was 22.8 L/h, the “D (duration of zero-order absorption)” value ([2]; PK model estimate) was 0.108 h and the “Ka (first-order absorption rate constant)” value ([2]; PK model estimate) was 2.44 h⁻¹. For the same compound, the “Lag (absorption delay)” value ([2]; PK model estimate) was 0.214 h, the “Q/F (apparent inter-compartment clearance)” value ([2]; PK model estimate) was 1.26 L/h and the “Residual Unexplained Variability” value ([2]; PK model estimate) was 34.8%. The “VC/F (apparent central volume)” value ([2]; PK model estimate) was 121 L, the “VP/F (apparent peripheral volume)” value ([2]; PK model estimate) was 18.4 L and the “Omega CL/F” value ([2]; between-subject variability) was 40.37 % CV. For the same compound, the “Omega Ka” value ([2]; between-subject variability) was 145 % CV, the “Omega Vc/F” value ([2]; between-subject variability) was 23.71 % CV and the “Omega Vp/F” value ([2]; between-subject variability) was 46.48 % CV.
